Source: patent US8629157B2, “Pyrrolidine compounds which modulate the CB2 receptor” (Boehringer Ingelheim International GmbH, priority 2009, dated 2014)
Like-named read-outs stand apart in the source and are kept apart here.

Molecular target: human CB2R (Homo sapiens, UniProt P34972)
Assay: CB2R mediated modulation of cAMP synthesis
Type: cell-based
How it was run: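 cAMP measured with the DiscoverX-XS kit after 30 min, 37° C. compound exposure of human CB2R-expressing CHO cells stimulated by 10 uM forskolin (1 mM IBMX, 0.25% BSA).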

Sequence of human CB2R (P34972 whole entry): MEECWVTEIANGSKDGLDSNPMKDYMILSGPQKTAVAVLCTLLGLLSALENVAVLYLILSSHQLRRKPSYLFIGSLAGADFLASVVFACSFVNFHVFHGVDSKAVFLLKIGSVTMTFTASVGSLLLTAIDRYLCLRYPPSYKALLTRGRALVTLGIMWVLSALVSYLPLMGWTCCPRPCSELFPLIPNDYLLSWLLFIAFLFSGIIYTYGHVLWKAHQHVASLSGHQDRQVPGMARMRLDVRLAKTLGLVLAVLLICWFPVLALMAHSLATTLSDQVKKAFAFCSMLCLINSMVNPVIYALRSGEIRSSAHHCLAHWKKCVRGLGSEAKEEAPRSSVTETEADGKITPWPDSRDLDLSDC

## O=C(Nc1nc(C(F)(F)F)co1)[C@@H]1CCCN1c1ccc(Cl)cc1 [(S)-1-(4-Chloro-phenyl)-pyrrolidine-2-carboxylic acid (4-trifluoromethyl-oxazol-2-yl)-amide]
  EC50: 5.79 nM

## O=C(Nc1cc(C(F)(F)F)ccn1)[C@@H]1CCCN1c1ccc(Cl)cc1 [(S)-1-(4-Chloro-phenyl)-pyrrolidine-2-carboxylic acid (4-trifluoromethyl-pyridin-2-yl)-amide]
  EC50: 23.4 nM

## O=C(Nc1nc(C(F)(F)F)cs1)[C@@H]1CCCN1c1ccc(Cl)cc1 [(S)-1-(4-Chloro-phenyl)-pyrrolidine-2-carboxylic acid (4-trifluoromethyl-thiazol-2-yl)-amide]
  EC50: 89.2 nM

## CC1(C)CC(=O)C=C(NC(=O)[C@@H]2CCCN2c2ccc(Cl)cc2)C1 [(S)-1-(4-Chloro-phenyl)-pyrrolidine-2-carboxylic acid (5,5-dimethyl-3-oxo-cyclohex-1-enyl)-amide]
  EC50: 17.9 nM

## O=C(Nc1nc2cc(Cl)ccc2[nH]1)[C@@H]1CCCN1c1ccc(Cl)cc1 [(S)-1-(4-Chloro-phenyl)-pyrrolidine-2-carboxylic acid (5-chloro-1H-benzimidazol-2-yl)-amide]
  EC50: 2.16 nM

## Cc1ccc(NC(=O)[C@@H]2CCCN2c2ccc(Cl)cc2)nc1 [(S)-1-(4-Chloro-phenyl)-pyrrolidine-2-carboxylic acid (5-methyl-pyridin-2-yl)-amide]
  EC50: 120 nM

## O=C(Nc1nnc(-c2ccccc2)s1)[C@@H]1CCCN1c1ccc(Cl)cc1 [(S)-1-(4-Chloro-phenyl)-pyrrolidine-2-carboxylic acid (5-phenyl-1,3,4-thiadiazol-2-yl)-amide]
  EC50: 11.2 nM

## CC(C)(C)c1nnc(NC(=O)[C@@H]2CCCN2c2ccc(Cl)cc2)s1 [(S)-1-(4-Chloro-phenyl)-pyrrolidine-2-carboxylic acid (5-tert-butyl-1,3,4-thiadiazol-2-yl)-amide]
  EC50: 0.098 nM

## O=C(Nc1ccc(C(F)(F)F)cn1)[C@@H]1CCCN1c1ccc(Cl)cc1 [(S)-1-(4-Chloro-phenyl)-pyrrolidine-2-carboxylic acid (5-trifluoromethyl-pyridin-2-yl)-amide]
  EC50: 35.1 nM

## O=C(Nc1cccc(C(F)(F)F)n1)[C@@H]1CCCN1c1ccc(Cl)cc1 [(S)-1-(4-Chloro-phenyl)-pyrrolidine-2-carboxylic acid (6-trifluoromethyl-pyridin-2-yl)-amide]
  EC50: 48.8 nM

## O=C(NC1CCOCC1)[C@@H]1CCCN1c1ccc(Cl)cc1 [(S)-1-(4-Chloro-phenyl)-pyrrolidine-2-carboxylic acid (tetrahydro-pyran-4-yl)-amide]
  EC50: 254 nM

## O=C(NCC1CCOCC1)[C@@H]1CCCN1c1ccc(Cl)cc1 [(S)-1-(4-Chloro-phenyl)-pyrrolidine-2-carboxylic acid (tetrahydro-pyran-4-ylmethyl)-amide]
  EC50: 415 nM

## CC(Cc1ccc(Cl)cc1)NC(=O)[C@@H]1CCCN1c1ccc(Cl)cc1 (stereo partly drawn) [(S)-1-(4-Chloro-phenyl)-pyrrolidine-2-carboxylic acid [2-(4-chloro-phenyl)-1-methyl-ethyl]-amide]
  EC50: 270 nM

## O=C(NCCC1CCOCC1)[C@@H]1CCCN1c1ccc(Cl)cc1 [(S)-1-(4-Chloro-phenyl)-pyrrolidine-2-carboxylic acid [2-(tetrahydro-pyran-4-yl)-ethyl]-amide]
  EC50: 105 nM

## CC(C)(CO)c1cc(NC(=O)[C@@H]2CCCN2c2ccc(Cl)cc2)on1 [(S)-1-(4-Chloro-phenyl)-pyrrolidine-2-carboxylic acid [3-(2-hydroxy-1,1-dimethyl-ethyl)-isoxazol-5-yl]-amide]
  EC50: 0.378 nM

## O=C(Nc1nc(-c2ccc(Cl)cc2)cs1)[C@@H]1CCCN1c1ccc(Cl)cc1 [(S)-1-(4-Chloro-phenyl)-pyrrolidine-2-carboxylic acid [4-(4-chloro-phenyl)-thiazol-2-yl]-amide]
  EC50: 84.9 nM

## O=C(Nc1nc(-c2ccc(F)cc2)cs1)[C@@H]1CCCN1c1ccc(Cl)cc1 [(S)-1-(4-Chloro-phenyl)-pyrrolidine-2-carboxylic acid [4-(4-fluoro-phenyl)-thiazol-2-yl]-amide]
  EC50: 115 nM

## CC(C)(C)c1cc(NC(=O)[C@@H]2CCC(=O)N2c2ccc(C#N)c(F)c2)on1 [(S)-1-(4-Cyano-3-fluoro-phenyl)-5-oxo-pyrrolidine-2-carboxylic acid (3-tert-butyl-isoxazol-5-yl)-amide]
CHO cells expressing human CB2R, inhibition of forskolin-stimulated cAMP synthesis, mean, read-out: CB2 CAMP @ EC50 nM (mean)
  EC50: 286 nM

## CC(C)(C)c1cc(NC(=O)[C@@H]2CCC(=O)N2c2ccc(C#N)c(F)c2)no1 [(S)-1-(4-Cyano-3-fluoro-phenyl)-5-oxo-pyrrolidine-2-carboxylic acid (5-tert-butyl-isoxazol-3-yl)-amide]
  EC50: 78.5 nM

## CC(C)(C)c1cc(NC(=O)[C@@H]2CCCN2Cc2ccc(OC(F)F)cc2)on1 [(S)-1-(4-Difluoromethoxy-benzyl)-pyrrolidine-2-carboxylic acid (3-tert-butyl-isoxazol-5-yl)-amide]
  EC50: 8.04 nM

## CC(C)(C)c1cc(NC(=O)[C@@H]2CCC(=O)N2c2ccc(C(F)F)cc2)on1 [(S)-1-(4-Difluoromethyl-phenyl)-5-oxo-pyrrolidine-2-carboxylic acid (3-tert-butyl-isoxazol-5-yl)-amide]
  EC50: 15.2 nM

## CCc1ccc(N2C(=O)CC[C@H]2C(=O)Nc2cc(C(C)(C)C)no2)cc1 [(S)-1-(4-Ethyl-phenyl)-5-oxo-pyrrolidine-2-carboxylic acid (3-tert-butyl-isoxazol-5-yl)-amide]
  EC50: 173 nM

## Cc1cc(N2C(=O)CC[C@H]2C(=O)Nc2cc(C(C)(C)C)no2)ccc1F [(S)-1-(4-Fluoro-3-methyl-phenyl)-5-oxo-pyrrolidine-2-carboxylic acid (3-tert-butyl-isoxazol-5-yl)-amide]
  EC50: 91.2 nM

## Cc1cc(N2C(=O)CC[C@H]2C(=O)Nc2cc(C(C)(C)C)on2)ccc1F [(S)-1-(4-Fluoro-3-methyl-phenyl)-5-oxo-pyrrolidine-2-carboxylic acid (5-tert-butyl-isoxazol-3-yl)-amide]
  EC50: 362 nM

## CC(C)(C)c1cc(NC(=O)[C@@H]2CCCN2Cc2ccc(F)cc2)on1 [(S)-1-(4-Fluoro-benzyl)-pyrrolidine-2-carboxylic acid (3-tert-butyl-isoxazol-5-yl)-amide]
  EC50: 0.747 nM

## CC(C)(C)c1cc(NC(=O)[C@@H]2CCC(=O)N2c2ccc(CF)cc2)on1 [(S)-1-(4-Fluoromethyl-phenyl)-5-oxo-pyrrolidine-2-carboxylic acid (3-tert-butyl-isoxazol-5-yl)-amide]
  EC50: 55.8 nM

## CC(C)c1ccc(N2C(=O)CC[C@H]2C(=O)Nc2cc(C(C)(C)C)no2)cc1 [(S)-1-(4-Isopropyl-phenyl)-5-oxo-pyrrolidine-2-carboxylic acid (3-tert-butyl-isoxazol-5-yl)-amide]
  EC50: 159 nM

## CC(C)(C)c1cc(NC(=O)[C@@H]2CCCN2S(=O)(=O)c2ccc(S(C)(=O)=O)cc2)no1 [(S)-1-(4-Methanesulfonyl-benzenesulfonyl)-pyrrolidine-2-carboxylic acid (5-tert-butyl-isoxazol-3-yl)-amide]
  EC50: 183 nM

## COc1ccc(N2C(=O)CC[C@H]2C(=O)Nc2cc(C(C)(C)C)no2)cc1 [(S)-1-(4-Methoxy-phenyl)-5-oxo-pyrrolidine-2-carboxylic acid (3-tert-butyl-isoxazol-5-yl)-amide]
  EC50: 163 nM

## CC(C)(C)c1cc(NC(=O)[C@@H]2CCCN2S(=O)(=O)c2ccc(C(F)(F)F)cc2)no1 [(S)-1-(4-Trifluoromethyl-benzenesulfonyl)-pyrrolidine-2-carboxylic acid (5-tert-butyl-isoxazol-3-yl)-amide]
  EC50: 222 nM

## O=C(Nc1ccc(C(F)(F)F)cn1)[C@@H]1CCCN1c1ccc(C(F)(F)F)cc1 [(S)-1-(4-Trifluoromethyl-phenyl)-pyrrolidine-2-carboxylic acid (5-trifluoromethyl-pyridin-2-yl)-amide]
  EC50: 15.5 nM

## CC(C)(C)c1cc(NC(=O)[C@@H]2CCC(=O)N2c2ccc(C#N)cc2)no1 [(S)-1-(4-cyano-phenyl)-5-oxo-pyrrolidine-2-carboxylic acid (5-tert-butyl-isoxazol-3-yl)-amide]
  EC50: 59.9 nM

## CC(C)(C)c1cc(NC(=O)[C@@H]2CCC(=O)N2c2ccc(F)cc2)no1 [(S)-1-(4-fluoro-phenyl)-5-oxo-pyrrolidine-2-carboxylic acid (5-tert-butyl-isoxazol-3-yl)-amide]
  EC50: 35.7 nM

## CC(C)(C)c1cc(NC(=O)[C@@H]2CCC(=O)N2c2ccc([N+](=O)[O-])cc2)no1 [(S)-1-(4-nitro-phenyl)-5-oxo-pyrrolidine-2-carboxylic acid (5-tert-butyl-isoxazol-3-yl)-amide]
  EC50: 21.1 nM

## CC(C)(C)c1cc(NC(=O)[C@@H]2CCCN2c2ncc(Cl)cc2F)on1 [(S)-1-(5-Chloro-3-fluoro-pyridin-2-yl)-pyrrolidine-2-carboxylic acid (3-tert-butyl-isoxazol-5-yl)-amide]
  EC50: 0.02 nM

## CC(C)(C)c1cc(NC(=O)[C@@H]2CCC(=O)N2c2ccc(Cl)cn2)on1 [(S)-1-(5-Chloro-pyridin-2-yl)-5-oxo-pyrrolidine-2-carboxylic acid (3-tert-butyl-isoxazol-5-yl)-amide]
  EC50: 3.44 nM

## CC(C)(C)c1cc(NC(=O)[C@@H]2CCC(=O)N2c2ncc(Cl)cn2)on1 [(S)-1-(5-Chloro-pyrimidin-2-yl)-5-oxo-pyrrolidine-2-carboxylic acid (3-tert-butyl-isoxazol-5-yl)-amide]
  EC50: 455 nM

## CC(C)(C)c1cc(NC(=O)[C@@H]2CCC(=O)N2c2ccc(Cl)s2)on1 [(S)-1-(5-Chloro-thiophen-2-yl)-5-oxo-pyrrolidine-2-carboxylic acid (3-tert-butyl-isoxazol-5-yl)-amide]
  EC50: 67.5 nM

## Cc1nc(N2C(=O)CC[C@H]2C(=O)Nc2cc(C(C)(C)C)no2)ccc1F [(S)-1-(5-Fluoro-6-methyl-pyridin-2-yl)-5-oxo-pyrrolidine-2-carboxylic acid (3-tert-butyl-isoxazol-5-yl)-amide]
  EC50: 74.4 nM

## CC(C)(C)c1cc(NC(=O)[C@@H]2CCC(=O)N2c2ccc(F)cn2)on1 [(S)-1-(5-Fluoro-pyridin-2-yl)-5-oxo-pyrrolidine-2-carboxylic acid (3-tert-butyl-isoxazol-5-yl)-amide]
  EC50: 8.15 nM
